The target in the experiment is HPK1 (Homo sapiens (Human), UniProt Q92918). In words: HPK1 Lantha binding assay ("Lanth"). As to conditions: binding assays; Morrison Ki fit. In a few lines:
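Ki values are from Morrison-equation fitting of 665/615 nm TR-FRET signals, taking enzyme level, tracer level and tracer Kd into account. The assay mix held HPK1 (2 nM), Eu-anti-GST antibody (2 nM) and Tracer222 (15 nM). Incubations were two 1 h steps at 23 °C, on 5-fold serial compound dilutions.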

The record followed here is patent US12208088B2 (Genentech, Inc., priority 2018, dated 2025).

Sequence of HPK1 (Q92918 1-346 limits assumed): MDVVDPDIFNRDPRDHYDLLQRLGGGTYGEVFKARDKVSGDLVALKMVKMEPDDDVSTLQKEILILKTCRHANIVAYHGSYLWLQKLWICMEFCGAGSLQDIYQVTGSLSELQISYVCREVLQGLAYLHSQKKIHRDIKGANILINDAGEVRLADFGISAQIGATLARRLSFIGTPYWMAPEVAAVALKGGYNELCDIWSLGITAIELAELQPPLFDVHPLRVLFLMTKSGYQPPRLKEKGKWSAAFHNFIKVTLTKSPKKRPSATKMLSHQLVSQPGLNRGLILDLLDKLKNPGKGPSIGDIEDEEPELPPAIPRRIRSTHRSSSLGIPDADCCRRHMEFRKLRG

For the compound `CNS(=O)(=O)c1cccc(-c2cnc3c(c2Cl)C2(CC=CC2)CN3)c1` [Compound 185, 3-(4′-Chloro-1′,2′-dihydrospiro[cyclopentane-1,3′-pyrrolo[2,3-b]pyridin]-3-en-5′-yl)-N-methylbenzenesulfonamide], the Ki – broadly, the dissociation constant of the complex between target and ligand, obtained from inhibition or displacement – was determined as 75.8 nM.

The compound `CS(=O)(=O)c1ccc(-c2cnc3c(c2Cl)C2(CC=CC2)CN3)cc1` [Compound 186, 4′-Chloro-5′-(4-(methylsulfonyl)phenyl)-1′,2′-dihydrospiro[cyclopentane-1,3′-pyrrolo[2,3-b]pyridin]-3-ene] came in with an inhibitory constant (Ki) of 276 nM. Under `CCS(=O)(=O)c1ccc(-c2cnc3c(c2Cl)C2(CC=CC2)CN3)cc1` [Compound 187, 4′-Chloro-5′-(4-(ethylsulfonyl)phenyl)-1′,2′-dihydrospiro[cyclopentane-1,3′-pyrrolo[2,3-b]pyridin]-3-ene] stands 300 nM. Under `CNS(=O)(=O)c1ccc(-c2cnc3c(c2Cl)C2(CC=CC2)CN3)cc1` [Compound 188, 4-(4′-Chloro-1′,2′-dihydrospiro[cyclopentane-1,3′-pyrrolo[2,3-b]pyridin]-3-en-5′-yl)-N-methylbenzenesulfonamide] stands 210 nM.

On to `CCNS(=O)(=O)c1ccc(-c2cnc3c(c2Cl)C2(CC=CC2)CN3)cc1` [Compound 189, 4-(4′-Chloro-1′,2′-dihydrospiro[cyclopentane-1,3′-pyrrolo[2,3-b]pyridin]-3-en-5′-yl)-N-ethylbenzenesulfonamide], for which the Ki is 315 nM. Regarding `N#Cc1cccc(-c2cnc3c(c2Cl)C2(CC=CC2)CN3)c1` [Compound 190, 3-(4′-Chloro-1′,2′-dihydrospiro[cyclopentane-1,3′-pyrrolo[2,3-b]pyridin]-3-en-5′-yl)benzonitrile], the Ki was found to be 359 nM. The value for `CN(C)C(=O)c1c(N)ccc(-c2cnc3c(c2Cl)[C@]2(CC[C@@](C)(O)CC2)CN3)c1F` [Compound 194a, 6-Amino-3-((1r,4r)-4′-chloro-4-hydroxy-4-methyl-1′,2′-dihydrospiro[cyclohexane-1,3′-pyrrolo[2,3-b]pyridin]-5′-yl)-2-fluoro-N,N-dimethylbenzamide] was 30.4 nM. Under `CN(C)C(=O)c1c(N)ccc(-c2cnc3c(c2Cl)[C@]2(CC[C@](C)(O)CC2)CN3)c1F` [Compound 194b, 6-Amino-3-((1s,4s)-4′-chloro-4-hydroxy-4-methyl-1′,2′-dihydrospiro[cyclohexane-1,3′-pyrrolo[2,3-b]pyridin]-5′-yl)-2-fluoro-N,N-dimethylbenzamide] stands 8.36 nM. Under `CN(C)C(=O)c1c(N)ccc(-c2cnc3c(c2Cl)C2(CCCCC2)CN3)c1F` [Compound 200, 6-Amino-3-(4′-chloro-1′,2′-dihydrospiro[cyclohexane-1,3′-pyrrolo[2,3-b]pyridin]-5′-yl)-2-fluoro-N,N-dimethylbenzamide] stands 4.76 nM. `O=S(=O)(c1ccc(-c2cnc3c(c2Cl)C2(CC=CC2)CN3)cc1)n1cccn1` [Compound 203, 5′-(4-((1H-Pyrazol-1-yl)sulfonyl)phenyl)-4′-chloro-1′,2′-dihydrospiro[cyclopentane-1,3′-pyrrolo[2,3-b]pyridin]-3-ene] showed an inhibitory constant (Ki) of 885 nM. The value for `OCC1(c2ccc(-c3cnc4c(c3Cl)C3(CC=CC3)CN4)cc2)CC1` [Compound 204, (1-(4-(4′-Chloro-1′,2′-dihydrospiro[cyclopentane-1,3′-pyrrolo[2,3-b]pyridin]-3-en-5′-yl)phenyl)cyclopropyl)methanol] was 285 nM. Under `CN(C)C(=O)c1ccc(-c2cnc3c(c2Cl)C2(CC=CC2)CN3)cc1F` [Compound 205, 4-(4′-Chloro-1′,2′-dihydrospiro[cyclopentane-1,3′-pyrrolo[2,3-b]pyridin]-3-en-5′-yl)-2-fluoro-N,N-dimethylbenzamide] stands 267 nM.

`CN(C)C(=O)c1ccc(-c2cnc3c(c2Cl)C2(CC=CC2)CN3)c(F)c1` [Compound 206, 4-(4′-Chloro-1′,2′-dihydrospiro[cyclopentane-1,3′-pyrrolo[2,3-b]pyridin]-3-en-5′-yl)-3-fluoro-N,N-dimethylbenzamide] showed a Ki of 436 nM.
